Reference: patent publication US11661405B2, “Crystal forms of tetrahydro-n,n-dimethyl-2,2-diphenyl-3-furanmethanamine hydrochloride, processes of making such forms, and their pharmaceutical compositions” (ANAVEX LIFE SCIENCES CORP., priority 2015, dated 2023)

Key:
[1] = storage stability of crystalline forms, checked by PXRD; format: physicochemical; conditions: 40° C., 75% relative humidity, uncapped vessels, 1 week; forms from SCF in ethanol or dichloromethane
Text: The present disclosure also provides a metabolite of tetrahydro-N,N-dimethyl-2,2-diphenyl-3-furanmethanamine hydrochloride, ANAVEX19-144. […] See for example J. of Psychopharmacol. 25(8), 1101-1117 (2011). Crystalline forms of ANAVEX19-144 were produced by placing the ANAVEX19-144 starting material in a solvent of ethanol or dichloromethane and processed by the supercritical fluid technique. The crystalline form of ANAVEX19-144 produced by the supercritical fluid technique under process parameters of 40 mg/mL ethanol solution, 200 bars of pressure, temperature of 80° C., supercritical CO2 solution with a flow rate of 20 g/min and a TS flow of 0.4 mL/min, was characterized by PXRD, FTIR, DSC, and SEM, as shown in FIGS. 12-15. […] The crystalline form of ANAVEX19-144 produced using the dichloromethane supercritical fluid technique produced a powder with better flow characteristics and improved flow properties for downstream processing. The two crystalline forms of ANAVEX19-144, produced according to the supercritical fluid technique in ethanol or dichloromethane were stored at 40° C. at 75% relative humidity in uncapped vessels for 1 week and then characterized by PXRD to determine stability of the two forms.

[2] = tested on: amyloid toxicity (Aβ25-35); conditions: cited from earlier work
[3] = tested on: PI3K neuroprotective pathway (P-Akt, P-GSK-3β), Tau, Aβ1-42; conditions: cited from earlier work

Compound | stability of the two crystalline forms (PXRD after storage) [1] | oxidative stress, caspases induction, cellular loss and learning and memory deficits ([2]; mice one week after i.c.v. injection of oligomeric Aβ25-35) | neuroprotective potential against amyloid toxicity ([2]; mice) | Aβ25-35-induced P-Akt decrease and P-GSK-3β increase ([3]; Aβ25-35-induced) | Aβ25-35-induced endogenous Aβ1-42 seeding ([3]; Aβ25-35-induced) | hyperphosphorylation of Tau on physiological epitopes (AT-8 clone) and pathological epitopes (AT-100 clone) ([3]; in the dose-range tested)
CNCC1CCOC1(c1ccccc1)c1ccccc1.Cl (stereo not drawn) [ANAVEX19-144] | stable under the conditions tested | – | – | – | – | –
CN(C)CC1CCOC1(c1ccccc1)c1ccccc1.Cl (stereo not drawn) [ANAVEX2-73, tetrahydro-N,N-dimethyl-2,2-diphenyl-3-furanmethanamine hydrochloride] | – | attenuating | shows neuroprotective potential against amyloid toxicity | blocked | decrease | attenuated
